# Reference: ChEMBL document CHEMBL1201862, “PubChem BioAssay data set” (2004)
#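 Tested at 5 concentrations; 48 h exposure; 96-well plates; endpoints linearly interpolated, else capped at highest concentration. GI50 = concentration required for 50% inhibition of growth.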 Calls of active or inactive are those of the source. Rule as the data show it: active = GI50 up to about 1.1 µM and inactive = higher.
# Assays:
# Test in all cases: growth of human tumour cells (NCI), 48 h
# [1] = test system: NCI-H226
# [2] = test system: SF-539
# [3] = test system: SK-MEL-2
# [4] = test system: U-251
# [5] = test system: SN12C
# [6] = test system: IGROV-1
# [7] = test system: LOX IMVI
# [8] = test system: HL-60
# [9] = test system: UACC-62
# [10] = test system: HT-29
# [11] = test system: Malme-3M
# [12] = test system: M19-MEL
# [13] = test system: DMS-114
# [14] = test system: HCC 2998
# [15] = test system: A498
# [16] = test system: SF-295
# [17] = test system: K562
# [18] = test system: NCI-H522
# [19] = test system: TK-10
# [20] = test system: NCI-H460
# [21] = test system: CAKI-1
# [22] = test system: DLD-1
# [23] = test system: 786-0
# [24] = test system: A549
# [25] = test system: UACC-257
# [26] = test system: SF-268
# [27] = test system: LXFL 529
# [28] = test system: SK-OV-3
# [29] = test system: SNB-78
# [30] = test system: NCI-H23
# [31] = test system: UO-31
# [32] = test system: SNB-75
# [33] = test system: SW-620
# [34] = test system: EKVX
# [35] = test system: COLO 205
# [36] = test system: HOP-18
# [37] = test system: SK-MEL-28
# [38] = test system: OVCAR-5
# [39] = test system: SK-MEL-5
# [40] = test system: HCT-15
# [41] = test system: MOLT-4
# [42] = test system: DMS-273
# [43] = test system: RPMI-8226
# [44] = test system: HCT-116
# [45] = test system: KM12
# [46] = test system: OVCAR-3
# [47] = test system: HOP-92
# [48] = test system: CCRF-CEM
# [49] = test system: SR
# [50] = test system: OVCAR-4
# [51] = test system: RXF 393
# [52] = test system: OVCAR-8
# [53] = test system: ACHN
# [54] = test system: HOP-62
# [55] = test system: KM-20L2
# [56] = test system: SNB-19
# [57] = test system: XF498
# [58] = test system: M14
compound,measurement,setting,value
O=C(CCN1CCC(CCO)CC1)Nc1ccc2c(c1)C(=O)c1ccc(NC(=O)CCN3CCC(CCO)CC3)cc1C2=O,GI50,[1],4.86 µM (inactive)
same,GI50,[2],6.28 µM (inactive)
same,GI50,[3],3.76 µM (inactive)
same,GI50,[4],9.1 µM (inactive)
same,GI50,[5],16.5 µM (inactive)
same,GI50,[6],24.7 µM (inactive)
same,GI50,[7],8.39 µM (inactive)
same,GI50,[8],24.6 µM (inactive)
same,GI50,[9],9.04 µM (inactive)
same,GI50,[10],13.5 µM (inactive)
same,GI50,[11],11 µM (inactive)
same,GI50,[12],97.5 µM (inactive)
same,GI50,[13],6.53 µM (inactive)
same,GI50,[14],14.4 µM (inactive)
same,GI50,[15],19.9 µM (inactive)
same,GI50,[16],> 100 µM (inactive)
same,GI50,[17],8.05 µM (inactive)
same,GI50,[18],11.8 µM (inactive)
same,GI50,[19],24.7 µM (inactive)
same,GI50,[20],3.94 µM (inactive)
same,GI50,[21],34.8 µM (inactive)
same,GI50,[22],10.4 µM (inactive)
same,GI50,[23],6.7 µM (inactive)
same,GI50,[24],37.7 µM (inactive)
same,GI50,[25],19.5 µM (inactive)
same,GI50,[26],11.3 µM (inactive)
same,GI50,[27],5.25 µM (inactive)
same,GI50,[28],7.96 µM (inactive)
same,GI50,[29],3.43 µM (inactive)
same,GI50,[30],26.5 µM (inactive)
same,GI50,[31],34.4 µM (inactive)
same,GI50,[32],20.2 µM (inactive)
same,GI50,[33],4.79 µM (inactive)
same,GI50,[34],32.5 µM (inactive)
same,GI50,[35],10.7 µM (inactive)
same,GI50,[36],25.5 µM (inactive)
same,GI50,[37],26.1 µM (inactive)
same,GI50,[38],> 100 µM (inactive)
same,GI50,[39],19.4 µM (inactive)
same,GI50,[40],27.7 µM
same,GI50,[41],4.13 µM (inactive)
same,GI50,[42],6.81 µM (inactive)
same,GI50,[43],25.9 µM (inactive)
same,GI50,[44],9.46 µM (inactive)
same,GI50,[45],2.69 µM (inactive)
same,GI50,[46],5.53 µM (inactive)
same,GI50,[47],29.8 µM (inactive)
same,GI50,[48],4.22 µM (inactive)
same,GI50,[49],7.69 µM (inactive)
same,GI50,[50],12.5 µM (inactive)
same,GI50,[51],30.1 µM (inactive)
same,GI50,[52],9.89 µM (inactive)
same,GI50,[53],41.9 µM (inactive)
same,GI50,[54],17.3 µM (inactive)
same,GI50,[55],27.9 µM (inactive)
same,GI50,[56],16.9 µM (inactive)
Cc1cc2c(cc1O)[nH]c1cc3c(cc12)C=CC(C)(C)O3,GI50,[57],> 25 µM (inactive)
same,GI50,[3],> 25 µM (inactive)
same,GI50,[13],10.6 µM (inactive)
same,GI50,[17],> 25 µM (inactive)
same,GI50,[19],> 25 µM (inactive)
same,GI50,[28],> 25 µM (inactive)
same,GI50,[29],11.3 µM (inactive)
same,GI50,[35],> 25 µM (inactive)
same,GI50,[38],17.7 µM (inactive)
same,GI50,[43],9.1 µM (inactive)
same,GI50,[46],7.28 µM (inactive)
same,GI50,[50],10.5 µM (inactive)
same,GI50,[52],4.55 µM (inactive)
same,GI50,[56],> 25 µM (inactive)
CC(C)CCCC(C)C1CCC2C3CC([N+](=O)[O-])=C4CC(O)CCC4(C)C3CCC12C (stereo not given),GI50,[57],22.3 µM (inactive)
same,GI50,[2],11.5 µM (inactive)
same,GI50,[3],12.4 µM (inactive)
same,GI50,[4],15.5 µM (inactive)
same,GI50,[5],18.2 µM (inactive)
same,GI50,[6],23.8 µM (inactive)
same,GI50,[7],19.6 µM (inactive)
same,GI50,[8],25 µM (inactive)
same,GI50,[9],19.9 µM (inactive)
same,GI50,[10],17.9 µM (inactive)
same,GI50,[11],19.8 µM (inactive)
same,GI50,[12],27.6 µM (inactive)
same,GI50,[13],22 µM (inactive)
same,GI50,[14],20.2 µM (inactive)
same,GI50,[15],21.8 µM (inactive)
same,GI50,[16],14.2 µM (inactive)
same,GI50,[17],9.62 µM (inactive)
same,GI50,[18],17.5 µM (inactive)
same,GI50,[19],21 µM (inactive)
same,GI50,[21],24.1 µM (inactive)
same,GI50,[22],19 µM (inactive)
same,GI50,[23],16.9 µM (inactive)
same,GI50,[24],23.2 µM (inactive)
same,GI50,[58],13.4 µM (inactive)
same,GI50,[25],10.8 µM (inactive)
same,GI50,[26],24.3 µM (inactive)
same,GI50,[27],18.7 µM (inactive)
same,GI50,[30],22.7 µM (inactive)
same,GI50,[32],17.1 µM (inactive)
same,GI50,[33],25.9 µM (inactive)
same,GI50,[34],27 µM (inactive)
same,GI50,[35],24.3 µM (inactive)
same,GI50,[37],13.7 µM (inactive)
same,GI50,[39],> 10 µM (inactive)
same,GI50,[40],17.3 µM
same,GI50,[41],24.2 µM (inactive)
same,GI50,[42],12.6 µM (inactive)
same,GI50,[43],5.02 µM (inactive)
same,GI50,[44],14.8 µM (inactive)
same,GI50,[45],16.4 µM (inactive)
same,GI50,[46],23.9 µM (inactive)
same,GI50,[47],23.3 µM (inactive)
same,GI50,[48],18.2 µM (inactive)
same,GI50,[49],15 µM (inactive)
same,GI50,[50],21.4 µM (inactive)
same,GI50,[51],23.6 µM (inactive)
same,GI50,[52],21.7 µM (inactive)
same,GI50,[53],43.4 µM (inactive)
same,GI50,[54],19.9 µM (inactive)
same,GI50,[55],18.5 µM (inactive)
